According to US20090042725A1, “Fungicidal Mixtures Based on 3,5-Disubstituted N-Biphenyl-Pyrazolcarboxamides” (BASF Aktiengesellschaft, priority 2005, published 2009):

Tests used:
Botrytis cinerea = experiment: Activity against gray mold on bell pepper leaves caused by Botrytis cinerea, 1 day protective application; type: in vivo; details: bell pepper seedlings, sprayed 1 day before inoculation, 4 mg/l, rated after 5 days, efficacy in % of untreated control (100% infection), read-out: Observed activity (% infection)
Experimental: (§1) The active compounds, separately or jointly, were prepared as a stock solution comprising 25 mg of active compound which was made up to 10 ml using a mixture of acetone and/or dimethyl sulfoxide and the emulsifier Uniperol® EL (wetting agent having an emulsifying and dispersing action based on ethoxylated alkylphenols) in a ratio by volume of solvent/emulsifier of 99:1. The mixture was then made up to 100 ml with water. This stock solution was diluted with the solvent/emulsifier/water mixture described to give the concentration of active compound stated below.
(§2) Alternatively, the active compounds epoxiconazole and pyraclostrobin were used as a commercial formulation and diluted with water to the stated active compound concentrations.
(§3) The visually determined percentages of infected leaf areas were converted into efficacies in % of the untreated control.
(§4) The efficacy (E) is calculated as follows using Abbot's formula: […]
(§5) α corresponds to the fungicidal infection of the treated plants in % and β corresponds to the fungicidal infection of the untreated (control) plants in %
(§6) An efficacy of 0 means that the infection level of the treated plants corresponds to that of the untreated control plants; an efficacy of 100 means that the treated plants were not infected.
(§7) The expected efficacies of active compound mixtures were determined using Colby's formula [R. S. Colby, “Calculating synergistic and antagonistic responses of herbicide combinations”, Weeds 15, 20-22 (1967)] and compared with the observed efficacies. […]
Bell pepper seedlings of the cultivar “Neusiedler Ideal Elite” were, after 2-3 leaves were well developed, sprayed to runoff point with an aqueous suspension in the active compound concentration stated below. […] After 5 days, the extent of the fungal infection on the leaves could be determined visually in %.

Phakopsora pachyrhizi = experiment: Curative activity against soybean rust caused by Phakopsora pachyrhizi; type: in vivo; details: soybean seedlings cultivar Oxford, sprayed 2 days after inoculation, 4 mg/l, rated after 14 days, efficacy in % of untreated control (90% infection), read-out: Observed activity (% infection)
Experimental: as §1, §2, §3, §4, §7
Leaves of potted soybean seedlings of the cultivar “Oxford” were inoculated with a spore suspension of soybean rust (Phakopsora pachyrhizi). […] The extent of the rust fungus development on the leaves was then determined

Puccinia recondite = experiment: Protective activity against Puccinia recondite on wheat (brown rust of wheat); type: in vivo; details: wheat seedlings cultivar Kanzler, sprayed 1 day before inoculation, efficacy in % of untreated control (90% infection), read-out: Observed activity (% infection); for inhibition at 1 µg/mL: 1 mg/l; for inhibition at 4 µg/mL: 4 mg/l
Experimental: as §1, §2, §3, §4, §5, §6
The expected efficacies of active compound mixtures were determined using Colby's formula [R. S. Colby, “Calculating synergistic and antagonistic responses of herbicide combinations”, Weeds 15, 20-22 (1967)] and compared with the observed efficacies.
E=x+y−x·y/100 Colby's formula • E expected efficacy, expressed in % of the untreated control, when using the mixture of the active compounds A and B at the concentrations a and b; • x efficacy, expressed in % of the untreated control, when using the active compound A at the concentration a; • y efficacy, expressed in % of the untreated control, when using the active compound B at the concentration b;
Leaves of potted wheat seedlings of the cultivar “Kanzler” were sprayed to runoff point with an aqueous suspension having the concentration of active compound stated below. The next day the treated plants were inoculated with a spore suspension of brown rust of wheat (Puccinia recondite). The plants were then placed in a chamber at high atmospheric humidity (90 to 95%) at 20 to 22° C. for 24 hours. During this time, the spores germinated and the germ tubes penetrated into the leaf tissue. The next day, the test plants were returned to the greenhouse and cultivated at temperatures between 20 and 22° C. and 65 to 70% relative atmospheric humidity for a further 7 days. The extent of the rust fungus development on the leaves was then determined visually.

Alternaria solani = experiment: Activity against early blight on tomatoes caused by Alternaria solani; type: in vivo; details: tomato plants, sprayed 1 day before infection, rated after 5 days, efficacy in % of untreated control (90% infection), read-out: Observed activity (% infection); for inhibition at 63 µg/mL: 63 mg/l
Experimental: as §1, §2, §3, §4, §5, §6, §7
Leaves of potted tomato plants were sprayed to runoff point with an aqueous suspension having the concentration of active compounds stated below. […] After 5 days, the disease on the untreated, but infected control plants had developed to such an extent that the infection could be determined visually in %.

[1] = test system: Erysiphe [syn. Blumeria] graminis forma specialis. tritici; experiment: Activity against mildew of wheat caused by Erysiphe [syn. Blumeria] graminis forma specialis. tritici; type: in vivo; details: wheat seedlings, sprayed 24 hours before dusting with spores, 1 mg/l, rated after 7 days; efficacy in % of untreated control (90% infection); read-out: Observed activity (% infection)
Experimental: as §1, with “below. […]” for “below.”
as §3, §4, §7
Leaves of potted wheat seedlings were sprayed to runoff point with an aqueous suspension having the active compound concentration stated below. […] After 7 days, the extent of the mildew development was determined visually in % infection of the entire leaf area.

With `Fc1ccc([C@]2(Cn3cncn3)O[C@H]2c2ccccc2Cl)cc1` (racemic) [epoxiconazole, (2RS,3SR)-1-[3-(2-chlorophenyl)-2,3-epoxy-2-(4-fluorophenyl)propyl]-1H-1,2,4-triazole] the inhibition at 4 µg/mL (Botrytis cinerea) was 10%.

`CC1CCN(c2c(-c3c(F)cc(F)cc3F)c(Cl)nc3ncnn23)CC1` [5-chloro-7-(4-methylpiperidin-1-yl)-6-(2,4,6-trifluorophenyl)-[1,2,4]triazolo[1,5-a]pyrimidine] showed an inhibition at 4 µg/mL (Phakopsora pachyrhizi) of 28%.

`Cn1cc(C(=O)Nc2ccccc2-c2cc(Cl)cc(Cl)c2)c(C(F)(F)F)n1` [No. I.1, 1-methyl-3-trifluoromethyl-N-(ortho-(3,5-dichlorophenyl)phenyl)-pyrazole-4-carboxamide] gave an inhibition at 1 µg/mL (Puccinia recondite) of 52%, an inhibition at 4 µg/mL (Botrytis cinerea) of 0% and a melting point of 101 to 105 °C.

`Cn1cc(C(=O)Nc2ccccc2-c2cc(Cl)cc(Cl)c2)c(C(F)F)n1` [No. I.4, N-(3′,5′-dichlorobiphenyl-2-yl)-1-methyl-3-difluoromethyl-1H-pyrazole-4-carboxamide] gave an inhibition at 16 µg/mL (Alternaria solani; 16 mg/l) of 44%, an inhibition at 1 µg/mL [1] of 0% and an inhibition at 1 µg/mL (Puccinia recondite) of 56%.

In the case of `COc1ccc(C(=CC(=O)N2CCOCC2)c2ccc(Cl)cc2)cc1OC` [dimethomorph, 3-(4-chlorophenyl)-3-(3,4-dimethoxyphenyl)-1-morpholin-4-yl-propenone], the inhibition at 63 µg/mL (Alternaria solani) is reported as 0% and the inhibition at 4 µg/mL (Puccinia recondite) is reported as 5%.

For `COc1cc(C)c(C(=O)c2c(OC)ccc(Br)c2C)c(OC)c1OC` [metrafenone, 3′-bromo-2,3,4,6′-tetramethoxy-2′,6-dimethylbenzophenone], the inhibition at 63 µg/mL (Alternaria solani) was 0% and the inhibition at 4 µg/mL (Puccinia recondite) was 0%.

For `COC(=O)N(OC)c1ccccc1COc1ccn(-c2ccc(Cl)cc2)n1` [pyraclostrobin, methyl N-{2-[1-(4-chlorophenyl)-1H-pyrazol-3-yloxymethyl]phenyl}(N-methoxy)carbamate], the inhibition at 1 µg/mL (Puccinia recondite) was 0% and the inhibition at 4 µg/mL (Botrytis cinerea) was 0%.
